In assay [1] the target is T1, MAO B (Rattus norvegicus, UniProt P19643).
T1 construct: determined in dilute rat brain homogenate; from tissue; host or cells: rat brain homogenate
T1 sequence (P19643 1-520): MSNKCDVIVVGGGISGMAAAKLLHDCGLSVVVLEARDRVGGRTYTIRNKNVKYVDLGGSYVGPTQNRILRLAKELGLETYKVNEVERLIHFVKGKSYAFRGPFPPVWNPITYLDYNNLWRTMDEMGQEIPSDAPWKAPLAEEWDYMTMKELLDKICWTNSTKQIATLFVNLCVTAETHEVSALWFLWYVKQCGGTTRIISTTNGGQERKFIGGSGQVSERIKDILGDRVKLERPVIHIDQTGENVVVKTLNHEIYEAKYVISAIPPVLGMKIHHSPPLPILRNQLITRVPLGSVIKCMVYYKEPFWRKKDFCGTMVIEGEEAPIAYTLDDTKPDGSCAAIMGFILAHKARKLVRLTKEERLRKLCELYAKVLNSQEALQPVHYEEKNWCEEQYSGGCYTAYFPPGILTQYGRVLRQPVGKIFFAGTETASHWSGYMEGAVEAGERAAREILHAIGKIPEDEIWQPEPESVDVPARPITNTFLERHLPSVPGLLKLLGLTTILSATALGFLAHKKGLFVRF
Kind of assay: MAO B inhibition in dilute rat brain homogenate (14C substrate, 20 min at 37° C). The format is biochemical. Conditions: for IC50 ratio MAO A / MAO B: quotient of IC50 MAO A and IC50 MAO B (selectivity for MAO B), 20 min; for IC50: rat brain homogenate, 14C-phenylethylamine or 14C-tryptamine 0.4 μmol/l, 20 minutes at 37° C, logit-log regression. How it is done:
(§1) The MAO-inhibiting activity of the novel compounds can be determined using standard methods. […] The mixture was incubated for 20 minutes at 37° C.
(§2) The blank value was determined in similar mixtures with an incubation time of t=0 min.
(§3) From the inhibitory values determined at the various inhibitor concentrations against a control, the mean inhibitory concentration (IC50) was calculated by linear regression following logit-log transformation.

The target of assay [2] is T2, MAO A (Rattus norvegicus, UniProt P21396).
T2 construct: determined in dilute rat brain homogenate; from tissue; host or cells: rat brain homogenate
T2 sequence (P21396 1-526): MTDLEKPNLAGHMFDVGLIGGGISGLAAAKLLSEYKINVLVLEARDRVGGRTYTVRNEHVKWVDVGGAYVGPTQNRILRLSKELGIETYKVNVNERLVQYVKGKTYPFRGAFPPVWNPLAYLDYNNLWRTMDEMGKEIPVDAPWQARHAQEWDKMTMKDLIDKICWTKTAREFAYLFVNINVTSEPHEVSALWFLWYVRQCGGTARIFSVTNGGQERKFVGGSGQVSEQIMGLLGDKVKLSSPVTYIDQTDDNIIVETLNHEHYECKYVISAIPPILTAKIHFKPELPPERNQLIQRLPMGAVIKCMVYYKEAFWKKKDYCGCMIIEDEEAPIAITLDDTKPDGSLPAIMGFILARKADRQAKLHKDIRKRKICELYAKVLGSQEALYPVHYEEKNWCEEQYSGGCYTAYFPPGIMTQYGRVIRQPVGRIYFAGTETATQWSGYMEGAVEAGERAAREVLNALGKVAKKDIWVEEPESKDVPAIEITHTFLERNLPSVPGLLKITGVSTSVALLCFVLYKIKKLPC
The assay is described as follows: MAO A inhibition in dilute rat brain homogenate (14C substrate, 20 min at 37° C). Conditions: 14C-phenylethylamine or 14C-tryptamine 0.4 μmol/l, logit-log regression. In kind it is biochemical. The procedure: as §1, §2, §3

As a reminder, the IC50 is the concentration that gives 50% inhibition. Higher therefore signals lower potency.

For `Cc1nnc(COc2ccc3c(C)c(C)c(=O)oc3c2)o1` [Example 1, 3,4-Dimethyl-7-(2-methyl-1,3,4-oxadiazol-5-yl)-methoxycoumarin], the “IC50 ratio MAO A / MAO B” value in assay [1] is recorded as 370.

`Cc1nnc(COc2ccc3c(C)c(C)c(=O)oc3c2)s1` [Example 2, 3,4-Dimethyl-7-(2-methyl-1,3,4-thiadiazol-5-yl)-methoxycoumarin] came in with an IC50 in assay [2] of 3.6 µM. In assay [1], the “IC50 ratio MAO A / MAO B” value turned out to be 1200 and the IC50 is 0.003 µM.

With `Cc1cc(COc2ccc3c(C)c(C)c(=O)oc3c2)on1` [Example 3, 3,4-Dimethyl-7-(3-methylisoxazol-5-yl)-methoxycoumarin], in assay [2], the 50% inhibitory concentration (IC50) came out at 1.5 µM. For the same compound, in assay [1], the “IC50 ratio MAO A / MAO B” value came to 710 and half-maximal inhibition (IC50) was put at 0.0021 µM.

`CCCc1cc(COc2ccc3c(C)c(C)c(=O)oc3c2)on1` [Example 4, 3,4-Dimethyl-7-(3-n-propylisoxazol-5-yl)-methoxycoumarin] registered a 50% inhibitory concentration (IC50) in assay [2] of around 10 µM. Further, in assay [1], the “IC50 ratio MAO A / MAO B” value is ~ 5900 and the IC50 turned out to be 0.0017 µM.

On to `COCc1cc(COc2ccc3c(C)c(C)c(=O)oc3c2)on1` [Example 6, 7-(3-Methoxymethylisoxazol-5-yl)-methoxy-3,4-dimethylcoumarin], for which the IC50 in assay [2] is around 10 µM. In addition, in assay [1], the “IC50 ratio MAO A / MAO B” value is recorded as ~ 2200 and the IC50 was determined as 0.0046 µM.

As for `CCc1nnc(COc2ccc3c(C)c(C)c(=O)oc3c2)o1` [Example 7, 7-(2-Ethyl-1,3,4-oxadiazol-5-yl)-methoxy-3,4-dimethylcoumarin], the IC50 was around 10 µM in assay [2] and 0.011 µM in assay [1]. The “IC50 ratio MAO A / MAO B” value in assay [1] was ~ 900.

As to `Cc1c(Cl)c(=O)oc2cc(OCc3csc(C4CC4)n3)c(Cl)cc12` [Example 10, 3,6-Dichloro-4-methyl-7-(2-cyclopropylthiazol-4-yl)-methoxycoumarin], the half-maximal inhibitory concentration (IC50) in assay [2] is above 10 µM. For the same compound, in assay [1], the “IC50 ratio MAO A / MAO B” value was above 4500 and it took 0.0022 µM to reach half-maximal inhibition (IC50).

As to `Cc1nnc(COc2ccc3cc(C)c(=O)oc3c2)s1` [Example 13, 3-Methyl-7-(2-methyl-1,3,4-thiadiazol-5-yl)-methoxycoumarin], the IC50 in assay [2] is above 10 µM; in assay [1], 0.015 µM. Besides, the “IC50 ratio MAO A / MAO B” value in assay [1] is on record as above 667.

In the case of `Cc1c(C)c2ccc(OCC3COc4ccccc4O3)cc2oc1=O` (stereo not drawn) [Example 21, 7-(Benzodioxan-2-yl)-methoxy-3,4-dimethylcoumarin], the figures for the IC50 in assay [2] and in assay [1] were around 10 µM and 0.0077 µM, respectively. Also, the “IC50 ratio MAO A / MAO B” value in assay [1] is given as ~ 1300.

In assay [2], `Cc1c(C)c2ccc(OCc3coc(Cc4ccccc4)c3)cc2oc1=O` [Example 22, 7-(2-Benzylfuran-4-yl)-methoxy-3,4-dimethylcoumarin] displayed a half-maximal inhibitory concentration (IC50) above 10 µM. In addition, in assay [1], the “IC50 ratio MAO A / MAO B” value was above 6250 and the IC50 worked out at 0.0016 µM.

`Cc1nc(COc2ccc3c(C)c(C)c(=O)oc3c2)cs1` [Example 24, 3,4-Dimethyl-7-(2-methylthiazol-4-yl)-methoxycoumarin]: in assay [2], the IC50 was around 10 µM. In assay [1], the “IC50 ratio MAO A / MAO B” value is given as ~ 3300 and the IC50 turned out to be 0.003 µM.

With `Cc1c(C)c2ccc(OCc3coc(Cc4cccc(Cl)c4)c3)cc2oc1=O` [Example 25, 7-[2-(3-Chlorobenzyl)-furan-4-yl]-methoxy-3,4-dimethylcoumarin], the IC50 in assay [2] was above 10 µM. Besides, in assay [1], the “IC50 ratio MAO A / MAO B” value is recorded as above 590 and the midpoint of inhibition, the IC50, lay at 0.017 µM.

Consider `Cc1c(C)c2ccc(OCc3nc(C(C)C)no3)cc2oc1=O` [Example 26, 7-(3-Iospropyl-1,2,4-oxadiazol-5-yl)-methoxy-3,4-dimethylcoumarin], for which, in assay [1], the “IC50 ratio MAO A / MAO B” value is above 7700 and the IC50 was determined as 0.0013 µM.

As for `Cc1c(C)c2ccc(OCc3cc(C(C)C)n(C)n3)cc2oc1=O` [Example 29, 7-(5-Isopropyl-1-methylpyrazol-3-yl)-methoxy-3,4-dimethylcoumarin], the IC50 in assay [2] was above 10 µM. For the same compound, in assay [1], the “IC50 ratio MAO A / MAO B” value is above 4500 and half-maximal inhibition (IC50) was put at 0.0022 µM.

`Cc1nnc(COc2ccc3c(C)c(Cl)c(=O)oc3c2)s1` [Example 30, 3-Chloro-4-methyl-7-(2-methyl-1,3,4-thiadiazol-5-yl)-methoxycoumarin]: the results for the half-inhibitory concentration (IC50) in assay [2] and in assay [1] were above 10 µM and 0.0057 µM, respectively. The “IC50 ratio MAO A / MAO B” value in assay [1] is listed as above 1700.

On to `Cc1nnc(COc2ccc3c4c(c(=O)oc3c2)CCCC4)s1` [Example 32, 3,4-Tetramethylen-7-(2-methyl-1,3,4-thiadiazol-5-yl)-methoxycoumarin], for which the IC50 in assay [2] is above 10 µM. In assay [1], the “IC50 ratio MAO A / MAO B” value is given as above 1400 and the IC50 turned out to be 0.0071 µM.

For `Cc1c(C)c2ccc(OCc3cc(C(C)C)no3)cc2oc1=O` [Example 33, 7-(3-Isopropylisoxazol-5-yl)-methoxy-3,4-dimethylcoumarin], the values for the IC50 in assay [2] and in assay [1] were around 6 µM and 0.00073 µM, respectively. In addition, in assay [1], the “IC50 ratio MAO A / MAO B” value is reported as ~ 8200.

`Cc1c(C)c2ccc(OCc3cc(CC(C)C)no3)cc2oc1=O` [Example 34, 7-(3-Isobutylisoxazol-5-yl)-methoxy-3,4-dimethylcoumarin] displayed an IC50 in assay [2] of around 10 µM. Further, in assay [1], the “IC50 ratio MAO A / MAO B” value was ~ 4500 and the midpoint of inhibition, the IC50, lay at 0.0022 µM.

Consider `Cc1c(C)c2ccc(OCc3cc(C(C)(C)C)no3)cc2oc1=O` [Example 35, 7-(3-tert-Butylisoxazol-5-yl)-methoxy-3,4-dimethylcoumarin], for which the IC50 in assay [2] was above 10 µM; in assay [1], 0.00092 µM. For the same compound, in assay [1], the “IC50 ratio MAO A / MAO B” value is given as above 11000.

With `Cc1ccc(COc2ccc3c(C)c(C)c(=O)oc3c2)s1` [Example 42, 3,4-Dimethyl-7-(2-methylthiophen-5-yl)-methoxycoumarin], in assay [2], half-maximal inhibition (IC50) required 0.35 µM. For the same compound, in assay [1], the “IC50 ratio MAO A / MAO B” value is given as 680 and the IC50 worked out at 0.00051 µM.

For the compound `Cc1c(C)c2ccc(OCc3nc(C4CC4)no3)cc2oc1=O` [Example 44, 3,4-Dimethyl-7-(3-cyclopropyl-1,2,4-oxadiazol-5-yl)-methoxycoumarin], the IC50 in assay [2] is around 7 µM; in assay [1], 0.0012 µM. Also, the “IC50 ratio MAO A / MAO B” value in assay [1] is recorded as ~ 5800.

Regarding `Cc1ccsc1COc1ccc2c(C)c(C)c(=O)oc2c1` [Example 45, 3,4-Dimethyl-7-(3-methylthiophen-2-yl)-methoxycoumarin], the IC50 in assay [2] came to 0.23 µM; in assay [1], 0.00051 µM. Further, in assay [1], the “IC50 ratio MAO A / MAO B” value was determined as 450.

Turning to `Cc1noc(COc2ccc3c(C)c(C)c(=O)oc3c2)n1` [Example 50, 3,4-Dimethyl-7-(3-methyl-1,2,4-oxadiazol-5-yl)-methoxycoumarin], the IC50 in assay [2] was around 4 µM. In addition, in assay [1], the “IC50 ratio MAO A / MAO B” value is recorded as ~ 930 and it took 0.0043 µM to reach half-maximal inhibition (IC50).

In assay [2], `Cc1c(C)c2ccc(OCc3cc(C4CC4)no3)cc2oc1=O` [Example 51, 7-(3-Cyclopropylisoxazol-5-yl)-methoxy-3,4-dimethylcoumarin] came in with an IC50 above 10 µM. In addition, in assay [1], the “IC50 ratio MAO A / MAO B” value is above 12500 and half-maximal inhibition (IC50) required 0.0008 µM.

Compound `Cc1c(Cl)c(=O)oc2cc(OCc3cc(C(C)C)n(C)n3)ccc12` [Example 54, 3-Chloro-7-(5-isopropyl-1-methylpyrazol-3yl)-methoxy-4-methylcoumarin] came in with an IC50 in assay [2] above 10 µM. For the same compound, in assay [1], the “IC50 ratio MAO A / MAO B” value is on record as above 6700 and the midpoint of inhibition, the IC50, lay at 0.0015 µM.

On to `CC(C)c1cc(COc2ccc3c4c(c(=O)oc3c2)CCCC4)nn1C` [Example 55, 7-(5-Isopropyl-1-methylpyrazol-3-yl)-methoxy-3,4-tetramethylenecoumarin], for which, in assay [2], the IC50 was above 10 µM. In assay [1], the “IC50 ratio MAO A / MAO B” value is on record as above 1000 and the IC50 is 0.01 µM.

`Cc1c(C)c2ccc(OCc3cc(C4CC4)on3)cc2oc1=O` [Example 58, 7-(5-Cyclopropylisoxazol-3-yl)-methoxy-3,4-dimethylcoumarin] registered an IC50 in assay [2] of around 7 µM. For the same compound, in assay [1], the “IC50 ratio MAO A / MAO B” value is ~ 8300 and it took 0.00084 µM to reach half-maximal inhibition (IC50).

The values are drawn from US5073563A, “Alkoxycoumarins substituted by a heterocyclic radical, their preparation and therapeutic agents containing these compounds” (BASF Aktiengesellschaft, priority 1988, dated 1991).
